According to article PMC9897788, “Design, synthesis and cytotoxic evaluation of novel bis-thiazole derivatives as preferential Pim1 kinase inhibitors with in vivo and in silico study” (Journal of Enzyme Inhibition and Medicinal Chemistry, 2023):

Key:
Assay in all cases: NCI 60 cell one-dose screening (SRB)
Assay type in all cases: cell-based
HS 578T = conditions: Homo sapiens, Breast Cancer, single dose 10 µM, 48 h, read-out: Percentage of cellular growth inhibition
Procedure, shortened: (§1)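 Single 10 µM final dose, 48 h at 37 °C in RPMI 1640 with 5% FBS, cells plated 24 h before dosing. TCA fixation (10% adherent, 16% suspension), SRB staining, absorbance at 515 nm. Growth percentage versus no-drug control with time-zero correction, reported as inhibition % (100 minus growth).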

OVCAR-5 = conditions: Homo sapiens; OVCAR-5, Ovarian Cancer; single dose 10 µM, 48 h; read-out: Percentage of cellular growth inhibition
Procedure, shortened: as §1

RPMI-8226 = conditions: Homo sapiens; RPMI-8226, Leukemia; single dose 10 µM, 48 h; read-out: Percentage of cellular growth inhibition
Procedure, shortened: as §1

HCT-116 = conditions: Homo sapiens; HCT-116, Colon Cancer; single dose 10 µM, 48 h; read-out: Percentage of cellular growth inhibition
Procedure, shortened: as §1

KM12 = conditions: Homo sapiens; KM12, Colon Cancer; single dose 10 µM, 48 h; read-out: Percentage of cellular growth inhibition
Procedure, shortened: as §1

EKVX = conditions: Homo sapiens, Non-Small Cell Lung Cancer, single dose 10 µM, 48 h, read-out: Percentage of cellular growth inhibition
Procedure, shortened: as §1

SK-MEL-5 = conditions: Homo sapiens; SK-MEL-5, Melanoma; single dose 10 µM, 48 h; read-out: Percentage of cellular growth inhibition
Procedure, shortened: as §1

MALME-3M = conditions: Homo sapiens, Melanoma, single dose 10 µM, 48 h, read-out: Percentage of cellular growth inhibition
Procedure, shortened: as §1

SF-268 = conditions: Homo sapiens; SF-268, CNS Cancer; single dose 10 µM, 48 h; read-out: Percentage of cellular growth inhibition
Procedure, shortened: as §1

MDA-MB-231/ATCC = conditions: Homo sapiens, Breast Cancer, single dose 10 µM, 48 h, read-out: Percentage of cellular growth inhibition
Procedure, shortened: as §1

A498 = conditions: Homo sapiens; A498, Renal Cancer; single dose 10 µM, 48 h; read-out: Percentage of cellular growth inhibition
Procedure, shortened: as §1

PC-3 = conditions: Homo sapiens; PC-3, Prostate Cancer; single dose 10 µM, 48 h; read-out: Percentage of cellular growth inhibition
Procedure, shortened: as §1

786-0 = conditions: Homo sapiens; 786-0, Renal Cancer; single dose 10 µM, 48 h; read-out: Percentage of cellular growth inhibition
Procedure, shortened: as §1

M14 = conditions: Homo sapiens; M14, Melanoma; single dose 10 µM, 48 h; read-out: Percentage of cellular growth inhibition
Procedure, shortened: as §1

SW-620 = conditions: Homo sapiens; SW-620, Colon Cancer; single dose 10 µM, 48 h; read-out: Percentage of cellular growth inhibition
Procedure, shortened: as §1

HOP-62 = conditions: Homo sapiens; HOP-62, Non-Small Cell Lung Cancer; single dose 10 µM, 48 h; read-out: Percentage of cellular growth inhibition
Procedure, shortened: as §1

DU-145 = conditions: Homo sapiens; DU-145, Prostate Cancer; single dose 10 µM, 48 h; read-out: Percentage of cellular growth inhibition
Procedure, shortened: as §1

NCI-H522 = conditions: Homo sapiens; NCI-H522, Non-Small Cell Lung Cancer; single dose 10 µM, 48 h; read-out: Percentage of cellular growth inhibition
Procedure, shortened: as §1

A549/ATCC = conditions: Homo sapiens, Non-Small Cell Lung Cancer, single dose 10 µM, 48 h, read-out: Percentage of cellular growth inhibition
Procedure, shortened: as §1

UACC-257 = conditions: Homo sapiens; UACC-257, Melanoma; single dose 10 µM, 48 h; read-out: Percentage of cellular growth inhibition
Procedure, shortened: as §1

U251 = conditions: Homo sapiens, U-251; U251, CNS Cancer; single dose 10 µM, 48 h; read-out: Percentage of cellular growth inhibition
Procedure, shortened: as §1

| Structure (SMILES) | inhibition at 10 µM (HS 578T) | inhibition at 10 µM (OVCAR-5) | inhibition at 10 µM (RPMI-8226) | inhibition at 10 µM (HCT-116) | inhibition at 10 µM (KM12) | inhibition at 10 µM (EKVX) | inhibition at 10 µM (SK-MEL-5) | inhibition at 10 µM (MALME-3M) | inhibition at 10 µM (SF-268) | inhibition at 10 µM (MDA-MB-231/ATCC) | inhibition at 10 µM (A498) | inhibition at 10 µM (PC-3) | inhibition at 10 µM (786-0) | inhibition at 10 µM (M14) | inhibition at 10 µM (SW-620) | inhibition at 10 µM (HOP-62) | inhibition at 10 µM (DU-145) | inhibition at 10 µM (NCI-H522) | inhibition at 10 µM (A549/ATCC) | inhibition at 10 µM (UACC-257) | further results |
| --- | --- | --- | --- | --- | --- | --- | --- | --- | --- | --- | --- | --- | --- | --- | --- | --- | --- | --- | --- | --- | --- |
| c1ccc(-c2csc(Nc3cccc(Nc4nc(-c5ccccc5)cs4)c3)n2)cc1 [6a, N^1,N^3-bis(4-phenylthiazol-2-yl)benzene-1,3-diamine] | 43.5% | 35.5% | 50.7% | 60% | 98.9% | 62.3% | 79% | 47.2% | 59.4% | 52% | 14.5% | 67.9% | 49.6% | 52.2% | 33.8% | 27% | 41.1% | 88.6% | 55.8% | 53.9% | inhibition at 10 µM (U251): 48.8% |
| Clc1ccc(-c2csc(Nc3cccc(Nc4nc(-c5ccc(Cl)cc5)cs4)c3)n2)cc1 [6c, N^1,N^3-bis(4–(4-chlorophenyl)thiazol-2-yl)benzene-1,3-diamine] | 29.5% | 9.6% | 14.8% | 38.5% | -1.4% | 12.4% | 2.9% | -22.4% | 22.6% | 24.9% | 9.8% | 22.2% | 29.2% | 29.3% | 0.4% | 17.7% | -1.8% | 13.2% | 6.7% | -20.4% | inhibition at 10 µM (U251): 2.2% |
| Fc1ccc(-c2cs/c(=N\c3ccccc3)n2-c2cccc(-n3c(-c4ccc(F)cc4)cs/c3=N\c3ccccc3)c2)cc1 [8b, N,N’-(3,3’-(1,3-phenylene)bis(4–(4-fluorophenyl)thiazole-3(3H)-yl-2(3H)-ylidene))dianiline] | 13.4% | 14% | 24.2% | 16.7% | 12.8% | 19.5% | 9.3% | 7.5% | 8.7% | 8.9% | -6.4% | 32.1% | 4.2% | 0.4% | 45.1% | -4.6% | 17.1% | 41.6% | 19.8% | -7% | inhibition at 10 µM (U251): 28.1% |
| S=C(Nc1ccccc1)Nc1cccc(NC(=S)Nc2ccccc2)c1 [compound 7, 1,1′-(1,3-phenylene)bis(3-phenylthiourea)] | 3.9% | -4.9% | -19.2% | -11.8% | 1% | 2.5% | 1.5% | 10.8% | 3.3% | -0.2% | -17.7% | -24% | -13.4% | -19.6% | -16.8% | -18.9% | -10.2% | -6.3% | 0.1% | -1.7% | inhibition at 10 µM (U251): -1.4% |
| Fc1ccc(-c2csc(Nc3cccc(Nc4nc(-c5ccc(F)cc5)cs4)c3)n2)cc1 [6b, N^1,N^3-bis(4–(4-fluorophenyl)thiazol-2-yl)benzene-1,3-diamine] | 30.7% | 34.5% | 50.5% | 42.3% | 62.4% | 60.2% | 38.8% | 17% | 42.1% | 35.4% | 21.7% | 64.8% | 31.2% | 33.2% | 29.7% | 27.3% | 32.3% | 93.8% | 37.2% | 25.4% | inhibition at 10 µM (U251): 37.3% |
| Cc1nc(Nc2cccc(Nc3nc(C)c(N=Nc4ccccc4)s3)c2)sc1N=Nc1ccccc1 [5a, N^1,N^3-bis(4-methyl-5-(phenyldiazenyl)thiazol-2-yl)benzene-1,3-diamine] | 19.8% | 19.8% | -9.4% | 14.1% | 52.1% | 16.9% | 8.5% | -7.7% | 42.4% | 35.1% | 1.2% | -3.3% | 18.7% | -7.6% | 9.4% | 9.3% | 16.6% | 30.7% | 36.4% | 2.7% | inhibition at 10 µM (U251): 30.1% |
